PubChem BioAssay AID1963838 (Molecular Pharmacology Branch, DTP, NCI, 2024)

System: 855422-203-R-J1-PDC complex spheroid viability
Experiment: Anticancer human tumor 855422-203-R-J1-PDC patient-derived bladder carcinoma cell line growth inhibition [POLQ]
Conditions: for IC50: curve of first compound; for viability, T/C: stronger effect = lower value
Experimental: Multicellular complex tumor spheroid response to Polymerase (POL) inhibitors (novobiocin, ART-558, RP6685) in combination with a variety of drugs and investigational agents in selected tumor cell lines
The POL inhibitors (novobiocin, ART-558, and RP6685) were evaluated both individually and in combination with standard of care and investigational anticancer small molecules within a complex spheroid model of solid tumors. . Complex spheroids include a stromal component modeled by human endothelial cells (HUVEC) and fibroblasts modeled by human mesenchymal stem cells (MSCs). The concentration ranges selected for each drug and investigational agent were based upon clinically achievable concentrations if the clinical Cmax of the agent was known.
Compounds. The drugs and investigational agents: novobiocin (NSC847541), ART-558 (NSC835418), RP-6685 (NSC848927), peposertib (NSC802822), ceralasertib (NSC780249), elimusertib (NSC800525), camonsertib (NSC841442), AZD-1390 (NSC803789), olaparib (NSC753686), talazoparib (NSC767125), rucaparib (NSC756644), sotorasib (NSC818433), MRTX-1133 (NSC836407), SN-38 (NSC673596), topotecan (NSC609699), epotoside (NSC141540), doxorubicin (NSC123127), gemcitabine (NSC613327), 5-fluorouracil (NSC19893), paclitaxel (NSC125973), vemurafenib (NSC761431), MSA-2 (NSC828583), SN-011 (NSC837082), adavosertib (NSC754352), prexasertib (NSC758257), carboplatin (NSC241240) and oxaliplatin (NSC266046), were obtained from the National Cancer Institute (NCI) Developmental Therapeutics Program Chemical Repository (21). The FDA-approved anticancer drug set is available from the Developmental Therapeutics Program at https://dtp.cancer.gov/organization/dscb/obtaining/. […] The stock solutions were prepared in dimethyl sulfoxide (DMSO, Sigma-Aldrich, St. Louis, MO, cat. D2650), except for the platinum compounds which were prepared in saline (Quality Biological, Gaithersburg, MD, cat. 114-055-101), at 800-fold the tested concentration and stored at -70 degrees C prior to their use. All drugs and investigational agents were tested over a range starting from a high concentration at or near the clinical Cmax and decreasing in half-log increments. If the clinical Cmax for an agent had not been determined, the highest concentration tested was 10 microM, except for SN-38, which was tested at a high concentration of 1 microM.
Cell Culture. All cells were maintained in an incubator at 37 degrees C and 5% CO2 with 95% humidity. The PDC lines were cultured according to standard operating procedures established by the NCI PDMR (https://pdmr.cancer.gov). Table 3 of the manuscript, lists the cell lines along with the number of the three cell types plated to form the mct-spheroids and media for tumor cell growth. After thawing, all PDC lines, except 997537-175-T-J1-PDC and 415267-285-R-J2-PDC, were cultured in Matrigel-coated flasks prepared with a working solution of 1X Ham's F-12 nutrient mix, without supplementation (Thermo Fisher Scientific, cat. 11765054), 100 U/mL penicillin-streptomycin (Thermo Fisher Scientific, cat. 15140122), and 2.5% Matrigel (Corning Inc., Corning, NY, cat. 354248) for the first three passages. The two PDC lines 997537-175-T-J1-PDC and 415267-285-R-J2-PDC were cultured on uncoated flasks. The 857933-349-R-J2-PDC line was cultured in 6C/Colon 1B media containing advanced DMEM/F-12 (Thermo Fisher Scientific, cat. 12634028), 10 mM HEPES (Thermo Fisher Scientific, cat. 15630080), 1X GlutaMAX supplement (Thermo Fisher Scientific, cat. 35050061), 0.1 mg/mL primocin (InvivoGen, San Diego, CA, cat. ant-pm-2), 10% defined fetal bovine serum, heat inactivated (HyClone Laboratories Inc., Logan, UT, cat. SH30070.03HI), 50% L-WRN conditioned media (ATCC, cat. CRL-3276), 1.25 mM N-Acetyl-L-cysteine (Sigma-Aldrich, cat. A9165), 10 mM nicotinamide (Sigma-Aldrich, cat. N0636), 1X B-27 supplement (Thermo Fisher Scientific, cat. 17504044), 1X N-2 supplement (Thermo Fisher Scientific, cat. […]

[1] = second compound 0.0316 µM, first compound 0.00316 µM
[2] = second compound 0.0316 µM, first compound 0.01 µM
[3] = second compound 0.0316 µM, first compound 0.0316 µM
[4] = second compound 0.0316 µM, first compound 0.1 µM
[5] = second compound 0.1 µM, first compound 0.00316 µM
[6] = second compound 0.1 µM, first compound 0.01 µM
[7] = second compound 0.1 µM, first compound 0.0316 µM
[8] = second compound 0.1 µM, first compound 0.1 µM
[9] = second compound 0.316 µM, first compound 0.00316 µM
[10] = second compound 0.316 µM, first compound 0.01 µM
[11] = second compound 0.316 µM, first compound 0.0316 µM
[12] = second compound 0.316 µM, first compound 0.1 µM
[13] = second compound 1 µM, first compound 0.00316 µM
[14] = second compound 1 µM, first compound 0.01 µM
[15] = second compound 1 µM, first compound 0.0316 µM
[16] = second compound 1 µM, first compound 0.1 µM
[17] = second compound 3.16 µM, first compound 0.00316 µM
[18] = second compound 3.16 µM, first compound 0.01 µM
[19] = second compound 3.16 µM, first compound 0.0316 µM
[20] = second compound 3.16 µM, first compound 0.1 µM
[21] = second compound 10 µM, first compound 0.00316 µM
[22] = second compound 10 µM, first compound 0.01 µM
[23] = second compound 10 µM, first compound 0.0316 µM
[24] = second compound 10 µM, first compound 0.1 µM
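Also: spheroids exposed to compounds for seven days before readout.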

COc1cccc(OCCCN)c1-c1cc(Nc2cnc(C#N)cn2)n[nH]1 + COC1C(OC(N)=O)C(O)C(Oc2ccc3c(O)c(NC(=O)c4ccc(O)c(CC=C(C)C)c4)c(=O)oc3c2C)OC1(C)C
IC50 (second compound 0.0316 µM): 19.4 nM | IC50 (second compound 0.1 µM): 16 nM | IC50 (second compound 0.316 µM): 20 nM | IC50 (second compound 1 µM): 16 nM | IC50 (second compound 3.16 µM): 16.1 nM | IC50 (second compound 10 µM): 16 nM | viability, T/C [1]: 98.3% | viability, T/C [2]: 90% | viability, T/C [3]: 20.3% | viability, T/C [4]: 8.97% | viability, T/C (second compound 0.0316 µM, first compound 0.316 µM): 6.7% | viability, T/C (second compound 0.0316 µM, first compound 1 µM): 6.14% | viability, T/C [5]: 102% | viability, T/C [6]: 69% | viability, T/C [7]: 22.4% | viability, T/C [8]: 8.69% | viability, T/C (second compound 0.1 µM, first compound 0.316 µM): 5.66% | viability, T/C (second compound 0.1 µM, first compound 1 µM): 4.71% | viability, T/C [9]: 109% | viability, T/C [10]: 101% | viability, T/C [11]: 16.4% | viability, T/C [12]: 7.64% | viability, T/C (second compound 0.316 µM, first compound 0.316 µM): 6.06% | viability, T/C (second compound 0.316 µM, first compound 1 µM): 5.18% | viability, T/C [13]: 118% | viability, T/C [14]: 75.1% | viability, T/C [15]: 13.6% | viability, T/C [16]: 6.95% | viability, T/C (second compound 1 µM, first compound 0.316 µM): 5.24% | viability, T/C (second compound 1 µM, first compound 1 µM): 5.12% | viability, T/C [17]: 109% | viability, T/C [18]: 74.9% | viability, T/C [19]: 14.5% | viability, T/C [20]: 7.77% | viability, T/C (second compound 3.16 µM, first compound 0.316 µM): 5.93% | viability, T/C (second compound 3.16 µM, first compound 1 µM): 8.32% | viability, T/C [21]: 107% | viability, T/C [22]: 74.2% | viability, T/C [23]: 15% | viability, T/C [24]: 8.46% | viability, T/C (second compound 10 µM, first compound 0.316 µM): 7.19% | viability, T/C (second compound 10 µM, first compound 1 µM): 4.54%

Cn1ncnc1[C@H]1c2n[nH]c(=O)c3cc(F)cc(c23)N[C@@H]1c1ccc(F)cc1 + COC1C(OC(N)=O)C(O)C(Oc2ccc3c(O)c(NC(=O)c4ccc(O)c(CC=C(C)C)c4)c(=O)oc3c2C)OC1(C)C
IC50 (second compound 0.0316 µM): > 100 nM | IC50 (second compound 0.1 µM): > 100 nM | IC50 (second compound 0.316 µM): > 100 nM | IC50 (second compound 1 µM): > 100 nM | IC50 (second compound 3.16 µM): > 100 nM | IC50 (second compound 10 µM): > 100 nM | viability, T/C (second compound 0.0316 µM, first compound 0.000316 µM): 94.6% | viability, T/C (second compound 0.0316 µM, first compound 0.001 µM): 104% | viability, T/C [1]: 116% | viability, T/C [2]: 106% | viability, T/C [3]: 108% | viability, T/C [4]: 108% | viability, T/C (second compound 0.1 µM, first compound 0.000316 µM): 81.8% | viability, T/C (second compound 0.1 µM, first compound 0.001 µM): 93.8% | viability, T/C [5]: 113% | viability, T/C [6]: 95.3% | viability, T/C [7]: 99.7% | viability, T/C [8]: 96.6% | viability, T/C (second compound 0.316 µM, first compound 0.000316 µM): 106% | viability, T/C (second compound 0.316 µM, first compound 0.001 µM): 106% | viability, T/C [9]: 101% | viability, T/C [10]: 108% | viability, T/C [11]: 95.4% | viability, T/C [12]: 118% | viability, T/C (second compound 1 µM, first compound 0.000316 µM): 110% | viability, T/C (second compound 1 µM, first compound 0.001 µM): 99.7% | viability, T/C [13]: 106% | viability, T/C [14]: 107% | viability, T/C [15]: 103% | viability, T/C [16]: 95.9% | viability, T/C (second compound 3.16 µM, first compound 0.000316 µM): 105% | viability, T/C (second compound 3.16 µM, first compound 0.001 µM): 106% | viability, T/C [17]: 98.2% | viability, T/C [18]: 94.4% | viability, T/C [19]: 95.9% | viability, T/C [20]: 102% | viability, T/C (second compound 10 µM, first compound 0.000316 µM): 108% | viability, T/C (second compound 10 µM, first compound 0.001 µM): 97.2% | viability, T/C [21]: 101% | viability, T/C [22]: 109% | viability, T/C [23]: 100% | viability, T/C [24]: 84%
